Reference: ChEMBL document CHEMBL3885881, “DrugMatrix”

What was measured:
Rattus norvegicus [1] = organism: Rattus norvegicus; test: DrugMatrix - Regimen: Daily Repeat; type: toxicity, organism-based, Sprague-Dawley; design: regimen Daily Repeat, gender Male, age 6-8 weeks; settings: in vivo, po, 500 mg/kg, route oral GAVAGE, dose level High, vehicle .5 % CMC
Rattus norvegicus [2] = organism: Rattus norvegicus; type: toxicity, organism-based, Sprague-Dawley; settings: in vivo, po, 500 mg/kg, 24 h, route oral GAVAGE, dose level High, time 1 day, vehicle .5 % CMC
Description: DrugMatrix - Regimen: Single

[3] = […], tissue Plasma, time 14 day

Question: What does the source list for `Clc1ccccc1` [CHLOROBENZENE]?
Answer: URIC ACID (Rattus norvegicus [1]; 120 h, tissue Plasma, time 5 day): 1.8 mg/dL; ABSOLUTE BASOPHIL (Rattus norvegicus [1]; […], tissue Blood, time 14 day): 0 CELLS/uL; ABSOLUTE EOSINOPHIL (Rattus norvegicus [1]; […], tissue Blood, time 14 day): 209.6 CELLS/uL; ABSOLUTE LYMPHOCYTE (Rattus norvegicus [1]; […], tissue Blood, time 14 day): 11694.6 CELLS/uL; ABSOLUTE MONOCYTE (Rattus norvegicus [1]; […], tissue Blood, time 14 day): 390 CELLS/uL; ABSOLUTE SEGMENTED NEUTROPHIL (Rattus norvegicus [1]; […], tissue Blood, time 14 day): 1365.8 CELLS/uL; BASOPHIL (Rattus norvegicus [1]; […], tissue Blood, time 14 day): 0%; EOSINOPHIL (Rattus norvegicus [1]; […], tissue Blood, time 14 day): 1.4%; ERYTHROCYTE COUNT (Rattus norvegicus [1]; […], tissue Blood, time 14 day): 6.07 x10E6/uL; HEMATOCRIT (Rattus norvegicus [1]; […], tissue Blood, time 14 day): 35.18%; HEMOGLOBIN (Rattus norvegicus [1]; […], tissue Blood, time 14 day): 13 G/DL; LEUKOCYTE COUNT (Rattus norvegicus [1]; […], tissue Blood, time 14 day): 13.86 x10E3/uL; LYMPHOCYTE (Rattus norvegicus [1]; […], tissue Blood, time 14 day): 85.2%; MEAN CORPUSCULAR HEMOGLOBIN (Rattus norvegicus [1]; […], tissue Blood, time 14 day): 21.48 pg; MEAN CORPUSCULAR HEMOGLOBIN CONCENTRATION (Rattus norvegicus [1]; […], tissue Blood, time 14 day): 37 G/DL; MEAN CORPUSCULAR VOLUME (Rattus norvegicus [1]; […], tissue Blood, time 14 day): 58.06 fL; MONOCYTE (Rattus norvegicus [1]; […], tissue Blood, time 14 day): 3%; NEUTROPHIL (Rattus norvegicus [1]; […], tissue Blood, time 14 day): 10.4%; NUCLEATED RED BLOOD CELLS (Rattus norvegicus [1]; […], tissue Blood, time 14 day): 0 /100WBC; PLATELET COUNT (Rattus norvegicus [1]; […], tissue Blood, time 14 day): 916.8 x10E3/uL; ALANINE AMINOTRANSFERASE (Rattus norvegicus [1]; [3]): 59 u/L; ALBUMIN (Rattus norvegicus [1]; [3]): 4.22 G/DL; ALKALINE PHOSPHATASE (Rattus norvegicus [1]; [3]): 464.4 u/L; ASPARTATE AMINOTRANSFERASE (Rattus norvegicus [1]; [3]): 88.8 u/L; BLOOD UREA NITROGEN (Rattus norvegicus [1]; [3]): 16 mg/dL; CARBON DIOXIDE (Rattus norvegicus [1]; [3]): 28.4 mmol/L; CHLORIDE (Rattus norvegicus [1]; [3]): 102.2 MEQ/L; CHOLESTEROL (Rattus norvegicus [1]; [3]): 70.2 mg/dL; CREATININE (Rattus norvegicus [1]; [3]): 0.16 mg/dL; GLUCOSE (Rattus norvegicus [1]; [3]): 130.8 mg/dL; LACTATE DEHYDROGENASE (Rattus norvegicus [1]; [3]): 283.8 u/L; LIPASE (Rattus norvegicus [1]; [3]): 10.2 u/L; PHOSPHORUS (Rattus norvegicus [1]; [3]): 11.26 mg/dL; POTASSIUM (Rattus norvegicus [1]; [3]): 6.64 MEQ/L; SODIUM (Rattus norvegicus [1]; [3]): 147.56 MEQ/L; TOTAL BILIRUBIN (Rattus norvegicus [1]; [3]): 0.28 mg/dL; TOTAL PROTEIN (Rattus norvegicus [1]; [3]): 6.16 G/DL; URIC ACID (Rattus norvegicus [1]; [3]): 1.56 mg/dL; ABSOLUTE EOSINOPHIL (Rattus norvegicus [2]; tissue Blood): 0 CELLS/uL; ABSOLUTE LYMPHOCYTE (Rattus norvegicus [2]; tissue Blood): 9295.67 CELLS/uL; ABSOLUTE MONOCYTE (Rattus norvegicus [2]; tissue Blood): 616 CELLS/uL; ABSOLUTE SEGMENTED NEUTROPHIL (Rattus norvegicus [2]; tissue Blood): 1621.67 CELLS/uL; BASOPHIL (Rattus norvegicus [2]; tissue Blood): 0%; EOSINOPHIL (Rattus norvegicus [2]; tissue Blood): 0%; ERYTHROCYTE COUNT (Rattus norvegicus [2]; tissue Blood): 6.3 x10E6/uL; HEMATOCRIT (Rattus norvegicus [2]; tissue Blood): 39.37%; HEMOGLOBIN (Rattus norvegicus [2]; tissue Blood): 14.03 G/DL; LEUKOCYTE COUNT (Rattus norvegicus [2]; tissue Blood): 11.53 x10E3/uL; LYMPHOCYTE (Rattus norvegicus [2]; tissue Blood): 80.67%; MEAN CORPUSCULAR HEMOGLOBIN (Rattus norvegicus [2]; tissue Blood): 22.3 pg; MEAN CORPUSCULAR HEMOGLOBIN CONCENTRATION (Rattus norvegicus [2]; tissue Blood): 35.67 G/DL; MEAN CORPUSCULAR VOLUME (Rattus norvegicus [2]; tissue Blood): 62.53 fL; MONOCYTE (Rattus norvegicus [2]; tissue Blood): 5.33%; NEUTROPHIL (Rattus norvegicus [2]; tissue Blood): 14%; NUCLEATED RED BLOOD CELLS (Rattus norvegicus [2]; tissue Blood): 0 /100WBC; PLATELET COUNT (Rattus norvegicus [2]; tissue Blood): 1230.33 x10E3/uL; ALANINE AMINOTRANSFERASE (Rattus norvegicus [2]; tissue Plasma): 176 u/L; ALBUMIN (Rattus norvegicus [2]; tissue Plasma): 4.43 G/DL; ALKALINE PHOSPHATASE (Rattus norvegicus [2]; tissue Plasma): 416.33 u/L; ASPARTATE AMINOTRANSFERASE (Rattus norvegicus [2]; tissue Plasma): 280 u/L; BLOOD UREA NITROGEN (Rattus norvegicus [2]; tissue Plasma): 20 mg/dL; CARBON DIOXIDE (Rattus norvegicus [2]; tissue Plasma): 28.67 mmol/L; CHLORIDE (Rattus norvegicus [2]; tissue Plasma): 99.33 MEQ/L; CHOLESTEROL (Rattus norvegicus [2]; tissue Plasma): 69.67 mg/dL; CREATININE (Rattus norvegicus [2]; tissue Plasma): 0.23 mg/dL; GLUCOSE (Rattus norvegicus [2]; tissue Plasma): 154.33 mg/dL; LACTATE DEHYDROGENASE (Rattus norvegicus [2]; tissue Plasma): 419.67 u/L; LIPASE (Rattus norvegicus [2]; tissue Plasma): 10.67 u/L; PHOSPHORUS (Rattus norvegicus [2]; tissue Plasma): 12.9 mg/dL; POTASSIUM (Rattus norvegicus [2]; tissue Plasma): 5.56 MEQ/L; SODIUM (Rattus norvegicus [2]; tissue Plasma): 146.57 MEQ/L; TOTAL BILIRUBIN (Rattus norvegicus [2]; tissue Plasma): 0.23 mg/dL; TOTAL PROTEIN (Rattus norvegicus [2]; tissue Plasma): 6.53 G/DL; URIC ACID (Rattus norvegicus [2]; tissue Plasma): 1.4 mg/dL
